Reference: patent US6395759B1, “Substituted benzamide derivatives and pharmaceutical compositions containing them” (SmithKline Beecham p.l.c., priority 1999, dated 2002)

Legend:
[1] = target: novel receptor obtainable from rat forebrain tissue; experiment: [3H]-Compound A radioligand binding assay; conditions: competition with [3H]-Compound A (20 nM)
Experimental: WO 92/22293 (SmithKline Beecham) discloses compounds having anti-convulsant activity, including inter alia the compound trans-(+)-6-acetyl-4S-(4-fluorobenzoylamino)-3,4-dihydro-2,2-dimethyl-2H-1-benzopyran-3R-ol (hereinafter referred to as Compound A). […] The affinity of test compounds to the novel receptor site is assessed as follows.
Whole forebrain tissue is obtained from rats. The tissue is first homogenised in buffer (usually 50 mM Tris/HCl, pH 7.4). The homogenised tissue is washed by centrifugation and resuspension in the same buffer, then stored at −70° C. until used.
To carry out the radioligand binding assay, aliquots of tissue prepared as above (usually at a concentration of 1-2 mg protein/ml) are mixed with aliquots of [3H]-Compound A dissolved in buffer. The final concentration of [3H]-Compound A in the mixture is usually 20 nM. The mixture is incubated at room temperature for 1 hour. [3H]-Compound A bound to the tissue is then separated from unbound [3H]-Compound A by filtration through Whatman GF/B glass fibre filters. The filters are then washed rapidly with ice-cold buffer. The amount of radioactivity bound to the tissue trapped on the filters is measured by addition of liquid scintillation cocktail to the filters followed by counting in a liquid scintillation counter. […]

[2] = test system: electrically-induced seizures in mice; experiment: Maximal electroshock seizure threshold (MEST) test; type: in vivo; conditions: 10 mg/kg po, suspension in methyl cellulose, one hour post dosing
Experimental: The maximal electroshock seizure threshold (MEST) test in rodents is particularly sensitive for detecting potential anticonvulsant properties^1. In this model, anticonvulsant agents elevate the threshold to electrically-induced seizures whilst proconvulsants lower the seizure threshold.
Mice (naive, male, Charles River, U.K. CD-1 strain, 25-30 g) are randomly assigned to groups of 10-20 and dosed orally or intraperitoneally at a dose volume of 10 ml/kg with various doses of compound (0.3-300 mg/kg) or vehicle. Mice are then subjected at 30 or 60 min post dose to a single electroshock (0.1 sec, 50 Hz, sine wave form) administered via corneal electrodes. The mean current and standard error required to induce a tonic seizure in 50% (CC50) of the mice in a particular treatment group is determined by the ‘up and down’ method of Dixon and Mood (1948)^2. Statistical comparisons between vehicle- and drug-treated groups are made using the method of Litchfield and Wilcoxon (1949)^3.
In control animals the CC50 is usually 14-18 mA. […] If a tonic convulsion does occur, then the current is decreased, and so on until all the animals in the group have been tested.
The percentage increase or decrease in CC50 for each group compared to the control is calculated. […]

For `COc1cc(C(C)(C)C)ccc1C(=O)Nc1cccc(C2CCCN2)c1` (racemic) [Example 1, (±)-4-tert-Butyl-2-methoxy-N-(3-pyrrolidin-2-yl-phenyl)-benzamide, monohydroclhloride], the pKi value [1] was “greater than 7” and the “increase in seizure threshold (CC50) compared to control” value [2] was 53%.
